The record followed here is patent US20050009894A1 (Aventis Pharma S.A., priority 2001, published 2005).

T1 sequence (P35968 786-1356 limits assumed): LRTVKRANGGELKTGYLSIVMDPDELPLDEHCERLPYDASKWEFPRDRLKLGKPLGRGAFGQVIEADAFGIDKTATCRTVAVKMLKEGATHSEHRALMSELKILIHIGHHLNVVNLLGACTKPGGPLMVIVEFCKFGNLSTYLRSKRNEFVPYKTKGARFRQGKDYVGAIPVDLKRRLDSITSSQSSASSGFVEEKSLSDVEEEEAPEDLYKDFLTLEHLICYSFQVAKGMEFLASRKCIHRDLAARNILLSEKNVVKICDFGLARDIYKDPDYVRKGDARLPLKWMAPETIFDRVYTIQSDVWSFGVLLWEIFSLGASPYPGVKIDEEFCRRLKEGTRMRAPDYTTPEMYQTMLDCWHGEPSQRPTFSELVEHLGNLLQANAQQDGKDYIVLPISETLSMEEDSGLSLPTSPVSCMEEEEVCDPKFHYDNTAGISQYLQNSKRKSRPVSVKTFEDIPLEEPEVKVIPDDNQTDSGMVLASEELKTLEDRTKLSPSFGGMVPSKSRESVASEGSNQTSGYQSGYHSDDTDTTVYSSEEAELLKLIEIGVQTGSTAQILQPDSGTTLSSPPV

The experiment has as its target T1, human KDR enzyme (Homo sapiens, UniProt P35968).
T1 construct: The cytoplasmic domain of human KDR enzyme is cloned in the form of a GST fusion; GST; made in house; host or cells: SF21 insect cells (baculovirus, pFastBac)
Nature of the experiment: Phosphorylation of the substrate PLCγ by the enzyme KDR in vitro (flashplate technique). The format is biochemical. The note with it: Table VII, degrees of activity by IC50 range; read-out: Activity. In short, it runs like this:
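GST-fused human KDR cytoplasmic domain (Sf21 baculovirus, ~60% pure; 100 ng/well) phosphorylating 2 μg GST-PLCγ SH2-SH3 fragment in MOPS pH 7.2 with MgCl2/MnCl2, 1 h at 37° C. Started with γ33P-ATP plus cold ATP (2 μM in start solution); flashplate radioactivity. % inhibition vs no-compound control; IC50 from dose-response curves.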
`O=C(Oc1cc(-c2nc3ccccc3[nH]2)[nH]n1)C1CC1` [Example 221, Cyclopropanecarboxylic acid 5-(1H-benzoimidazol-2-yl)-1H-pyrazol-3-yl ester]: the IC50 was more than 3 µM.
The result for `O=C(Oc1cc(-c2nc3ccccc3[nH]2)[nH]n1)C(F)(F)C(F)(F)C(F)(F)F` [Example 222, 2,2,3,3,4,4,4-Heptafluoro-butyric acid 5-(1H-benzoimidazol-2-yl)-1H-pyrazol-3-yl ester] reads more than 3 µM.
The result for `O=C(Oc1cc(-c2nc3ccccc3[nH]2)[nH]n1)C1CCCC1` [Example 223, Cyclopentanecarboxylic acid 5-(1H-benzoimidazol-2-yl)-1H-pyrazol-3-yl ester] reads more than 3 µM.
The result for `O=C(CCc1ccccc1)Oc1cc(-c2nc3ccccc3[nH]2)[nH]n1` [Example 224, 3-Phenyl-propionic acid 5-(1H-benzoimidazol-2-yl)-1H-pyrazol-3-yl ester] reads 0.3 to 3 µM; that for `O=C(Oc1cc(-c2nc3ccccc3[nH]2)[nH]n1)c1ccc(-c2ccccc2)cc1` [Example 225, Biphenyl-4-carboxylic acid 5-(1H-benzoimidazol-2-yl)-1H-pyrazol-3-yl ester], more than 3 µM.
Regarding `O=C(Oc1cc(-c2nc3ccccc3[nH]2)[nH]n1)c1cc(C(F)(F)F)cc(C(F)(F)F)c1` [Example 226, 3,5-Bis-trifluoromethyl-benzoic acid 5-(1H-benzoimidazol-2-yl)-1H-pyrazol-3-yl ester], the IC50 is more than 3 µM.
For `O=C(Oc1cc(-c2nc3ccccc3[nH]2)[nH]n1)c1ccc(C(F)(F)F)cc1` [Example 227, 4-Trifluoromethyl-benzoic acid 5-(1H-benzoimidazol-2-yl)-1H-pyrazol-3-yl ester], the IC50 was more than 3 µM.
Next, `O=C(Oc1cc(-c2nc3ccccc3[nH]2)[nH]n1)c1cccs1` [Example 228, Thiophene-2-carboxylic acid 5-(1H-benzoimidazol-2-yl)-1H-pyrazol-3-yl ester]: more than 3 µM.
